One assay has as its target human mPGES-1 (Homo sapiens (Human), UniProt O14684). Nature of the assay: mPGES-1 inhibitory activity test. Particulars: microsomes of CHO-K1 cells expressing human mPGES-1, PGH2 1 μM, PGE2 by HTRF; read-out: mPGES-1 inhibition (IC50 nM). Type of assay: biochemical. The procedure: mPGES-1 microsomal specimens were prepared by transiently transfecting CHO-K1 cells (DS Pharma Biomedical Co. Ltd) with a plasmid encoding human mPGES-1 cDNA using FuGENE 6 Transfection Reagent (Promega). The prepared mPGES-1 microsome specimens were diluted in potassium phosphate buffer of pH 7.4 comprising 2.5 mM reduced glutathione (Sigma-Aldrich), DMSO solution of a test compound or DMSO was added to a final concentration of 1% of DMSO, and then incubated at 4° C. for 20 minutes. The enzymatic reaction was then initiated by adding a solution of PGH2 (Cayman chemical) substrate of a final concentration 1 μM and incubated at 4° C. for 60 seconds. The reaction was terminated by adding a solution of ferric chloride (STREM CHEMICALS) and citric acid (Wako Pure Chemical Industries) salt to a final concentration of 5 mg/mL and 250 mM, respectively. The formed PGE2 was quantified using the HTRF kit (Cisbio International). Solutions without the test compound were used as positive controls, and solutions without the test compound and microsomal specimens were used as negative controls. 100% activity was defined as production of PGE2 in the positive control minus that in the negative control. The percentage inhibition of production of PGE2 at final concentrations of 10 nM and 100 nM of the test compound was then calculated, or IC50 values were determined using standard methods.

Another assay relates to human A549 cells. Nature of the assay: Inhibition test of PGE2 production using human A549 cells. Particulars: IL-1β stimulated A549 cells, 24 h, PGE2 by HTRF, read-out: A549 cell inhibition of PGE2 production IC50. The class given is cell-based. The procedure:
100 μL of RPMI medium (Sigma) comprising 10% FBS and human A549 cells was seeded in a 96-well plate to […] cells per well, and incubated overnight. The medium was then removed and washed with phosphate-buffered saline, and added to a DMSO solution of the test compound or RPMI medium comprising 3% FBS with DMSO to a final concentration of 0.1% DMSO. After incubation for 60 minutes, IL-1P (5 ng/well, BioLegend) was added to the solution. After incubation at 37° C. for 24 h, PGE2 in the medium was quantified using the HTRF kit (Cisbio International) and PGF2a was also quantified using the EIA kit (Cayman chemical). Solutions without the test compound were used as positive controls, and solutions without the test compound and IL-1β were used as negative controls. 100% activity was defined as production of PGE2 and PGF2a in the positive control minus those in the negative control. IC50 values were then determined using standard methods.
Background: TR-FRET usually uses a lanthanide donor and a delayed reading to cut background.

Molecules are shown by their SMILES. Structures can show the parent of a compound that is named as a salt.

Chain of human mPGES-1 (O14684 whole entry): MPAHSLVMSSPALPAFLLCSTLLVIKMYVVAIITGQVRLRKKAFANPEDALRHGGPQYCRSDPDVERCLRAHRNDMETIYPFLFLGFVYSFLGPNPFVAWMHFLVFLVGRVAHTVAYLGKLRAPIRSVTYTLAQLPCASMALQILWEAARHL

For orientation: IC50 means the concentration at which inhibition is half-maximal. As for `O=C(Nc1cccc2c1cnn2-c1ccc(C(F)(F)F)cc1)c1cc(CNC(=O)C2CCCO2)ccc1Cl` (stereo not shown) [Example 33, N-[4-chloro-3-({1-[4-(trifluoromethyl)phenyl]-1H-indazol-4-yl}carbamoyl)benzyl]-tetrahydrofuran-2-carboxamide], the IC50 on human mPGES-1 was 18 nM; with human A549 cells it was 41.4 nM.

As for `O=C(Nc1cccc2c1cnn2-c1ccc(C(F)(F)F)cc1)c1cc(CNC(=O)C2CCOC2)ccc1Cl` (stereo not shown) [Example 34, N-[4-chloro-3-({1-[4-(trifluoromethyl)phenyl]-1H-indazol-4-yl}carbamoyl)benzyl]-tetrahydrofuran-3-carboxamide], the figures for the half-maximal inhibitory concentration (IC50) at human mPGES-1 and with human A549 cells were 31 nM and 20.7 nM, respectively.

With `CN(C)CCC(=O)NCc1ccc(Cl)c(C(=O)Nc2cccc3c2cnn3-c2ccc(C(F)(F)F)cc2)c1` [Example 35, 2-Chloro-5-{[(N,N-dimethyl-p-alanyl)amino]methyl}-N-{1-[4-(trifluoromethyl)phenyl]-1H-indazol-4-yl}benzamide hydrochloride], the half-inhibitory concentration (IC50) came out at 116 nM at human mPGES-1 and 933 nM in the assay with human A549 cells.

As to `CC(C)(C)OC(=O)N1CCC(C(=O)NCc2ccc(Cl)c(C(=O)Nc3cccc4c3cnn4-c3ccc(C(F)(F)F)cc3)c2)CC1` [Example 36, tert-Butyl 4-{[4-chloro-3-({1-[4-(trifluoromethyl)phenyl]-1H-indazol-4-yl}carbamoyl)benzyl]carbamoyl}piperidine-1-carboxylate], the concentration for half-maximal inhibition (IC50) was 1.4 nM at human mPGES-1 and 1.7 nM in the assay on human A549 cells.

In the case of `O=C(CC(F)(F)F)NCc1ccc(Cl)c(C(=O)Nc2cccc3c2cnn3-c2ccc(C(F)(F)F)cc2)c1` [Example 37, 2-Chloro-N-{1-[4-(trifluoromethyl)phenyl]-1H-indazol-4-yl}-5-{[(3,3,3-trifluoropropanoyl)amino]methyl}benzamide], the concentration for half-maximal inhibition (IC50) worked out at 8.9 nM at human mPGES-1 and 2.5 nM with human A549 cells.

In the case of `O=C(CC1CC1)NCc1ccc(Cl)c(C(=O)Nc2cccc3c2cnn3-c2ccc(C(F)(F)F)cc2)c1` [Example 38, 2-Chloro-5-{[(cyclopropylacetyl)amino]methyl}-N-{1-[4-(trifluoromethyl)phenyl]-1H-indazol-4-yl}benzamide], the half-maximal inhibitory concentration (IC50) was found to be 5.7 nM on human mPGES-1 and 7.5 nM with human A549 cells.

As for `O=C(Nc1cccc2c1cnn2-c1ccc(C(F)(F)F)cc1)c1cc(CNC(=O)[C@H]2CC[C@H](O)CC2)ccc1Cl` [Example 39, 2-Chloro-5-({[trans-(4-hydroxycyclohexyl)carbonyl]amino}methyl)-N-{1-[4-(trifluoromethyl)phenyl]-1H-indazol-4-yl}benzamide], the IC50 on human mPGES-1 is 7.5 nM; in the assay with human A549 cells, 5.1 nM.

Consider `O=C(Nc1cccc2c1cnn2-c1ccc(C(F)(F)F)cc1)c1cc(CNC(=O)[C@H]2CC[C@@H](O)CC2)ccc1Cl` [Example 40, 2-Chloro-5-({[cis-(4-hydroxycyclohexyl)carbonyl]amino}methyl)-N-{1-[4-(trifluoromethyl)phenyl]-1H-indazol-4-yl}benzamide], for which the IC50 at human mPGES-1 is 19.1 nM; in the assay on human A549 cells it was 60.2 nM.

Consider `CCC(O)(CC)C(=O)NCc1ccc(Cl)c(C(=O)Nc2cccc3c2cnn3-c2ccc(C(F)(F)F)cc2)c1` [Example 41, 2-Chloro-5-{[(2-ethyl-2-hydroxybutanoyl)amino]methyl}-N-{1-[4-(trifluoromethyl)phenyl]-1H-indazol-4-yl}benzamide], for which the figures for the concentration for half-maximal inhibition (IC50) on human mPGES-1 and in the assay on human A549 cells were 1 nM and 13.7 nM, respectively.

On to `CCCC(=O)NCc1ccc(Cl)c(C(=O)Nc2cccc3c2cnn3-c2ccc(C(F)(F)F)cc2)c1` [Example 43, 5-[(Butanoylamino)methyl]-2-chloro-N-{1-[4-(trifluoromethyl)phenyl]-1H-indazol-4-yl}benzamide], for which the IC50 at human mPGES-1 worked out at 2.3 nM; with human A549 cells, 13.5 nM.

On to `O=C(Cc1ccccc1)NCc1ccc(Cl)c(C(=O)Nc2cccc3c2cnn3-c2ccc(C(F)(F)F)cc2)c1` [Example 44, 2-Chloro-5-{[(phenylacetyl)amino]methyl}-N-{1-[4-(trifluoromethyl)phenyl]-1H-indazol-4-yl}benzamide], for which the 50% inhibitory concentration (IC50) is 7.2 nM at human mPGES-1 and 151 nM in the assay on human A549 cells.

For the compound `O=C(NCc1ccc(Cl)c(C(=O)Nc2cccc3c2cnn3-c2ccc(C(F)(F)F)cc2)c1)c1ccco1` [Example 45, N-[4-chloro-3-({1-[4-(trifluoromethyl)phenyl]-1H-indazol-4-yl}carbamoyl)benzyl]furan-2-carboxamide], the IC50 is 1.2 nM on human mPGES-1 and 37.6 nM with human A549 cells.

Turning to `O=C(CC1CCCC1)NCc1ccc(Cl)c(C(=O)Nc2cccc3c2cnn3-c2ccc(C(F)(F)F)cc2)c1` [Example 46, 2-Chloro-5-{[(cyclopentylacetyl)amino]methyl}-N-{1-[4-(trifluoromethyl)phenyl]-1H-indazol-4-yl}benzamide], the IC50 at human mPGES-1 was found to be 3 nM; in the assay with human A549 cells it was 14.3 nM.

As for `COCCC(=O)NCc1ccc(Cl)c(C(=O)Nc2cccc3c2cnn3-c2ccc(C(F)(F)F)cc2)c1` [Example 47, 2-Chloro-5-{[(3-methoxypropanoyl)amino]methyl}-N-{1-[4-(trifluoromethyl)phenyl]-1H-indazol-4-yl}benzamide], the IC50 stood at 8 nM at human mPGES-1 and 8.5 nM in the assay with human A549 cells.

Take `COc1ccc(-n2ncc3c(NC(=O)c4cc(CNC(=O)C(C)(C)C)ccc4Cl)cccc32)cc1` [Example 48, 2-Chloro-5-{[(2,2-dimethylpropanoyl)amino]methyl}-N-[1-(4-methoxyphenyl)-1H-indazol-4-yl]benzamide]: the IC50 was 3.3 nM at human mPGES-1 and 4 nM in the assay with human A549 cells.

Take `COc1cccc(-n2ncc3c(NC(=O)c4cc(CNC(=O)C(C)(C)C)ccc4Cl)cccc32)c1` [Example 49, 2-Chloro-5-{[(2,2-dimethylpropanoyl)amino]methyl}-N-[1-(3-methoxyphenyl)-1H-indazol-4-yl]benzamide]: the half-inhibitory concentration (IC50) on human mPGES-1 turned out to be 9.9 nM; with human A549 cells, 0.9 nM.

On to `CC(C)(C)C(=O)NCc1ccc(Cl)c(C(=O)Nc2cccc3c2cnn3-c2ccc(C(F)(F)F)cc2)c1` [Example 50, 2-Chloro-5-{[(2,2-dimethylpropanoyl)amino]methyl}-N-{1-[4-(trifluoromethyl)phenyl]-1H-indazol-4-yl}benzamide], for which the IC50 at human mPGES-1 worked out at 14.7 nM; in the assay on human A549 cells, 3.5 nM.

Consider `CC(C)(C)C(=O)NCc1ccc(Cl)c(C(=O)Nc2cccc3c2cnn3-c2ccc(OC(F)(F)F)cc2)c1` [Example 51, 2-Chloro-5-{[(2,2-dimethylpropanoyl)amino]methyl}-N-{1-[4-(trifluoromethoxy)phenyl]-1H-indazol-4-yl}benzamide], for which the values for the concentration for half-maximal inhibition (IC50) at human mPGES-1 and with human A549 cells were 5 nM and 112 nM, respectively.

With `Cc1ncc(-n2ncc3c(NC(=O)c4cc(CNC(=O)C(C)(C)C)ccc4Cl)cccc32)cn1` [Example 52, 2-Chloro-5-{[(2,2-dimethylpropanoyl)amino]methyl}-N-[1-(2-methylpyrimidin-5-yl)-1H-indazol-4-yl]benzamide], the IC50 at human mPGES-1 turned out to be 3.6 nM; in the assay on human A549 cells it was 20.9 nM.

With `Cc1ccc(-n2ncc3c(NC(=O)c4cc(CNC(=O)C(C)(C)C)ccc4Cl)cccc32)cc1Cl` [Example 53, 2-Chloro-N-[1-(3-chloro-4-methylphenyl)-1H-indazol-4-yl]-5-([(2,2-dimethylpropanoyl)amino]methyl)benzamide], the IC50 on human mPGES-1 was found to be 2.6 nM; in the assay with human A549 cells, 1.8 nM.

These data come from patent publication US20250059172A1, “INDAZOLE COMPOUND AND PHARMACEUTICAL” (NIPPON SHINYAKU CO., LTD., priority 2021, published 2025).
